1 compound from publication PMC10254852, “Design, Synthesis and Anticancer Evaluation of Nitroimidazole Radiosensitisers” (Molecules, 2023) can be followed below.

Read-outs that look alike come from different tables or passages of the source.

Experiment [1] concerns FaDu cells. In words: In vitro cytotoxicity, 4 h exposure oxic/anoxic, 5-day regrowth, sulforhodamine B. It is filed as cell-based. Particulars: for IC50: Homo sapiens, 4 h exposure, mean ± SEM.
The test system of experiment [2] is HCT116/54C cells. In words: In vitro radiosensitisation under anoxia, clonogenic survival. It is filed as cell-based, human. The settings on record: compound 1 mM, radiation dose for 1% survival/radiation dose for 1% survival with compound, mean ± SEM.

With `O=[N+]([O-])c1nccn1CS(=O)(=O)NCCN1CCOCC1` [Compound 34], the IC50 (in general, the concentration that inhibits the measured activity by half) in experiment [1] (anoxic, n = 3–4, read-out: IC50 Anoxic) is 0.16 ± 0.01 mM; in experiment [1] (oxic, n = 3–4, read-out: IC50 Oxic), 3.7 ± 0.1 mM. This compound also came in with an HCR in experiment [1] (IC50(oxic)/IC50(anoxic)) of 23.3. For the same compound, the “SER at 1 mM” value in experiment [2] came to 1.92 ± 0.01.
